One experiment deals with Hsp90α (Homo sapiens (Human), UniProt P07900). In words: Fluorescence polarization (FP) assay, Hsp90α. Format: binding. Here is the method: (§1) Fluorescence Polarization. Assay buffer (25 μL, 20 mM HEPES pH 7.3, 50 mM KCl, 5 mM MgCl2, 1 mM DTT, 20 mM Na2MoO4, 0.01% NP-40, and 0.5 mg/mL BGG) was added to 96-well plate (black well, black bottom) followed by the desired compound at the indicated final concentrations in DMSO (1% DMSO final concentration). […] Plates were incubated with rocking for 5 h at 4° C. […] Percent FITC-GDA bound was determined by using the DMSO millipolarization unit (mP) as the 100% bound value and the 0% for FITC-GDA. Kd values were calculated from separate experiments performed in triplicate using GraphPad Prism.
(In general: Fluorescence polarisation rises when a labelled molecule tumbles more slowly, as on binding a larger partner.)

Experiment [1] has as its target Grp94 (recombinant cGrp94) (Canis lupus familiaris (Dog) (Canis familiaris), UniProt P41148). The experiment is described as follows: Fluorescence polarization (FP) assay, cGrp94 with FITC-GDA. Format: binding. The note with it: apparent Kd, cGrp94 and FITC-GDA, triplicates, ± SEM, read-out: Kd Grp94. The method, then: as §1

The structures appear in SMILES notation. “And” between values parts separate entries of the source, which are not always exact repeats. Identical values can stand only once.

Grp94 (recombinant cGrp94), sequence (P41148 22-804): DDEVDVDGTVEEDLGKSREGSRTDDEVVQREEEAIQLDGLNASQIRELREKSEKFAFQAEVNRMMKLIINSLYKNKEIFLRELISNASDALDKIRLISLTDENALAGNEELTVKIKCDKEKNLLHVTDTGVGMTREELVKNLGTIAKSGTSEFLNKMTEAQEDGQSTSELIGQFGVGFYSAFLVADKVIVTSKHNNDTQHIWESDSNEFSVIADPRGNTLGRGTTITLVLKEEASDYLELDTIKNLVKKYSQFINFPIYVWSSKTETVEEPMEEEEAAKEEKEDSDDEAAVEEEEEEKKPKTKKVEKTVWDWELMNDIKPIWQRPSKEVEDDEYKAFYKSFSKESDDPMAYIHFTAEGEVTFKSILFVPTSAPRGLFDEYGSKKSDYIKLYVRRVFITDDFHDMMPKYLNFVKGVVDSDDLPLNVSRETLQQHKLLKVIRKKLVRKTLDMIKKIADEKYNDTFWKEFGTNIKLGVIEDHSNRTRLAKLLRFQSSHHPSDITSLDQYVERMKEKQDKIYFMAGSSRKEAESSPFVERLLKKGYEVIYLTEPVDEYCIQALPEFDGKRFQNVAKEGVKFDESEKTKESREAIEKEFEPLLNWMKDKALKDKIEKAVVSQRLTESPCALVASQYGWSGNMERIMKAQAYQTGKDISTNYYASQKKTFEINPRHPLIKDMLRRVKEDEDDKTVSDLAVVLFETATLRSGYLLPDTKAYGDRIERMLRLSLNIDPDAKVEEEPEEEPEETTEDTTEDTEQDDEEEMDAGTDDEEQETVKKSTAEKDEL

As for `NC(=O)c1ccc(-n2cccc2-c2ccccc2)cc1N[C@H]1CC[C@H](O)CC1` [Compound 5a, 2-(((1r,4r)-4-hydroxycyclohexyl)amino)-4-(2-phenyl-1H-pyrrol-1-yl)benzamide], the Kd on Hsp90α was greater than 100 µM; in experiment [1] it was ~9 µM and 9.05 µM.

Consider `Cc1ccc(-c2cccn2-c2ccc(C(N)=O)c(N[C@H]3CC[C@H](O)CC3)c2)cc1` [Compound 5d, 2-(((1r,4r)-4-hydroxycyclohexyl)amino)-4-(2-(p-tolyl)-1H-pyrrol-1-yl)benzamide], for which the Kd at Hsp90α was greater than 100 µM; in experiment [1] it was 8.35 ± 0.14 µM.

`COc1ccccc1Cc1cccn1-c1ccc(C(N)=O)c(N[C@H]2CC[C@H](O)CC2)c1` [Compound 8m, 2-(((1r,4r)-4-hydroxycyclohexyl)amino)-4-(2-(2-methoxybenzyl)-1H-pyrrol-1-yl)benzamide]: the Kd was greater than 100 µM on Hsp90α and 1.15 µM in experiment [1].

With `Cc1cccc(-c2cccn2-c2ccc(C(N)=O)c(N[C@H]3CC[C@H](O)CC3)c2)c1` [Compound 5c, 2-(((1r,4r)-4-hydroxycyclohexyl)amino)-4-(2-(m-tolyl)-1H-pyrrol-1-yl)benzamide], the Kd was greater than 100 µM on Hsp90α and 9.43 ± 0.26 µM in experiment [1].

For `NC(=O)c1ccc(-n2cccc2Cc2ccccc2Cl)cc1N[C@H]1CC[C@H](O)CC1` [Compound 8b, 4-(2-(2-chlorobenzyl)-1H-pyrrol-1-yl)-2-(((1r,4r)-4-hydroxycyclohexyl)amino)benzamide], the Kd at Hsp90α was greater than 100 µM; in experiment [1], 0.83 ± 0.12 µM.

At Hsp90α, `NC(=O)c1ccc(-n2cccc2-c2ccccc2Cl)cc1N[C@H]1CC[C@H](O)CC1` [Compound 5e, 4-(2-(2-chlorophenyl)-1H-pyrrol-1-yl)-2-(((1r,4r)-4-hydroxycyclohexyl)amino)benzamide] registered a Kd greater than 100 µM.

For `NC(=O)c1ccc(-n2cccc2Cc2cccc(Cl)c2)cc1N[C@H]1CC[C@H](O)CC1` [Compound 8c], the Kd is greater than 100 µM at Hsp90α and 2.45 ± 0.45 µM in experiment [1].

For `NC(=O)c1ccc(-n2cccc2Cc2ccc(O)cc2)cc1N[C@H]1CC[C@H](O)CC1` [Compound 8l, 4-(2-(4-hydroxybenzyl)-1H-pyrrol-1-yl)-2-(((1r,4r)-4-hydroxycyclohexyl)amino)benzamide], the Kd on Hsp90α was greater than 100 µM.

On to `Cc1ccccc1-c1cccn1-c1ccc(C(N)=O)c(N[C@H]2CC[C@H](O)CC2)c1` [Compound 5b, 2-(((1r,4r)-4-hydroxycyclohexyl)amino)-4-(2-(o-tolyl)-1H-pyrrol-1-yl)benzamide], for which the Kd on Hsp90α was greater than 100 µM; in experiment [1] it was 9.9 ± 0.54 µM.

As to `NC(=O)c1ccc(-n2cccc2-c2ccc(Cl)cc2)cc1N[C@H]1CC[C@H](O)CC1` [Compound 5g, 4-(2-(4-chlorophenyl)-1H-pyrrol-1-yl)-2-(((1r,4r)-4-hydroxycyclohexyl)amino)benzamide], the figures for the Kd (on Hsp90α; in experiment [1]) were greater than 100 µM and 10.6 ± 0.54 µM, respectively.

Turning to `NC(=O)c1ccc(-n2cccc2-c2cccnc2)cc1N[C@H]1CC[C@H](O)CC1` [Compound 5i, 2-(((1r,4r)-4-hydroxycyclohexyl)amino)-4-(2-(pyridin-3-yl)-1H-pyrrol-1-yl)benzamide], the Kd on Hsp90α was greater than 100 µM; in experiment [1], 5.5 ± 0.15 µM.

Turning to `NC(=O)c1ccc(-n2cccc2Cc2cccnc2)cc1N[C@H]1CC[C@H](O)CC1` [Compound 8p, 2-(((1r,4r)-4-hydroxycyclohexyl)amino)-4-(2-(pyridin-3-ylmethyl)-1H-pyrrol-1-yl) benzamide], the Kd at Hsp90α was greater than 100 µM; in experiment [1] it was 5.5 ± 0.15 µM.

With `NC(=O)c1ccc(-n2cccc2Cc2ccncc2)cc1N[C@H]1CC[C@H](O)CC1` [Compound 8q, 2-(((1r,4r)-4-hydroxycyclohexyl)amino)-4-(2-(pyridin-4-ylmethyl)-1H-pyrrol-1-yl)benzamide], the results for the Kd (at Hsp90α; in experiment [1]) were greater than 100 µM and 13.2 ± 0.12 µM, respectively.

As to `NC(=O)c1ccc(-n2cccc2Cc2cccc(F)c2)cc1N[C@H]1CC[C@H](O)CC1` [Compound 8f, 4-(2-(3-fluorobenzyl)-1H-pyrrol-1-yl)-2-(((1r,4r)-4-hydroxycyclohexyl)amino)benzamide], the Kd on Hsp90α is greater than 100 µM; in experiment [1] it was 4.53 ± 0.12 µM.

In the case of `NC(=O)c1ccc(-n2cccc2Cc2ccccc2)cc1N[C@H]1CC[C@H](O)CC1` [Compound 8a, 4-(2-benzyl-1H-pyrrol-1-yl)-2-(((1r,4r)-4-hydroxycyclohexyl)amino)benzamide], the Kd on Hsp90α is greater than 100 µM; in experiment [1] it was ~1.3 µM and 1.13 µM.

Regarding `NC(=O)c1ccc(-n2cccc2Cc2ccccc2Br)cc1N[C@H]1CC[C@H](O)CC1` [Compound 8h, 4-(2-(2-bromobenzyl)-1H-pyrrol-1-yl)-2-(((1r,4r)-4-hydroxycyclohexyl)amino)benzamide], the results for the Kd (at Hsp90α; in experiment [1]) were greater than 100 µM and 12.9 ± 0.11 µM, respectively.

Consider `NC(=O)c1ccc(-n2cccc2Cc2ccc(F)cc2)cc1N[C@H]1CC[C@H](O)CC1` [Compound 8g, 4-(2-(4-fluorobenzyl)-1H-pyrrol-1-yl)-2-(((1r,4r)-4-hydroxycyclohexyl)amino)benzamide], for which the Kd on Hsp90α is greater than 100 µM; in experiment [1], 8.35 ± 0.14 µM.

Turning to `Cc1ccccc1Cc1cccn1-c1ccc(C(N)=O)c(N[C@H]2CC[C@H](O)CC2)c1` [Compound 8i, 2-(((1r,4r)-4-hydroxycyclohexyl)amino)-4-(2-(2-methylbenzyl)-1H-pyrrol-1-yl)benzamide], the values for the Kd (on Hsp90α; in experiment [1]) were greater than 100 µM and 4.2 ± 0.23 µM, respectively.

For `NC(=O)c1ccc(-n2cccc2Cc2cccc(O)c2)cc1N[C@H]1CC[C@H](O)CC1` [Compound 8k, 4-(2-(3-hydroxybenzyl)-1H-pyrrol-1-yl)-2-(((1r,4r)-4-hydroxycyclohexyl)amino)benzamide], the Kd at Hsp90α is greater than 100 µM; in experiment [1], greater than 25 µM.

As to `NC(=O)c1ccc(-n2cccc2Cc2c(F)cccc2F)cc1N[C@H]1CC[C@H](O)CC1` [Compound 8n, 4-(2-(2,6-difluorobenzyl)-1H-pyrrol-1-yl)-2-(((1r,4r)-4hydroxycyclohexyl)amino)benzamide], the values for the Kd (at Hsp90α; in experiment [1]) were greater than 100 µM and greater than 25 µM, respectively.

Regarding `NC(=O)c1ccc(-n2cccc2Cc2ccccn2)cc1N[C@H]1CC[C@H](O)CC1` [Compound 8o, 2-(((1r,4r)-4-hydroxycyclohexyl)amino)-4-(2-(pyridin-2-ylmethyl)-1H-pyrrol-1-yl)benzamide], the Kd on Hsp90α was greater than 100 µM; in experiment [1], 14 ± 0.27 µM.

On to `NC(=O)c1ccc(-n2cccc2-c2ccccn2)cc1N[C@H]1CC[C@H](O)CC1` [Compound 5h, 2-(((1r,4r)-4-hydroxycyclohexyl)amino)-4-(2-(pyridin-2-yl)-1H-pyrrol-1-yl)benzamide], for which the Kd was greater than 100 µM at Hsp90α and 14 ± 0.27 µM in experiment [1].

Take `NC(=O)c1ccc(-n2cccc2-c2cccc(Cl)c2)cc1N[C@H]1CC[C@H](O)CC1` [Compound 5f, 4-(2-(3-chlorophenyl)-1H-pyrrol-1-yl)-2-(((1r,4r)-4-hydroxycyclohexyl)amino)benzamide]: the Kd at Hsp90α was greater than 100 µM.

`NC(=O)c1ccc(-n2cccc2Cc2ccc(Cl)cc2)cc1N[C@H]1CC[C@H](O)CC1` [Compound 8d, 4-(2-(4-chlorobenzyl)-1H-pyrrol-1-yl)-2-(((1r,4r)-4-hydroxycyclohexyl)amino)benzamide]: the Kd at Hsp90α was greater than 100 µM; in experiment [1], greater than 25 µM.

On to `NC(=O)c1ccc(-n2cccc2CCc2ccccc2)cc1N[C@H]1CC[C@H](O)CC1` [Compound 9, 2-(((1r,4r)-4-hydroxycyclohexyl)amino)-4-(2-phenethyl-1H-pyrrol-1-yl)benzamide], for which the Kd on Hsp90α was greater than 100 µM; in experiment [1], greater than 25 µM.

On to `NC(=O)c1ccc(-n2cccc2-c2ccncc2)cc1N[C@H]1CC[C@H](O)CC1` [Compound 5j, 2-(((1r,4r)-4-hydroxycyclohexyl)amino)-4-(2-(pyridin-4-yl)-1H-pyrrol-1-yl)benzamide], for which the Kd at Hsp90α is greater than 100 µM; in experiment [1], 13.2 ± 0.12 µM.
